For one compound, MIC results are on record in ChEMBL document CHEMBL1142573, “Suaveolindole, a new mass-limited antibacterial indolosesquiterpene from Greenwayodendron suaveolens obtained via high-throughput natural products chemistry methods” (2005).

≈ marks a conversion by molar mass, not a printed value. Some results are limits rather than exact numbers.

Type in all cases: functional
Test [1] relates to Pseudomonas aeruginosa. Briefly: Antimicrobial activity against Pseudomonas aeruginosa ATCC 9027.
Test [2] has as its system Enterococcus faecalis. Briefly: Antimicrobial activity against vancomycin-resistant Enterococcus faecalis VRE ATCC 51575.
For test [3], the system named is Klebsiella pneumoniae. Nature of the test: Antimicrobial activity against Klebsiella pneumoniae ATCC 10031.
For test [4], the system named is Staphylococcus aureus. Nature of the test: Antimicrobial activity against methicillin-resistant Staphylococcus aureus ATTC 33591.
The subject of test [5] is Staphylococcus aureus. Briefly: Antimicrobial activity against Staphylococcus aureus ATTC 6538P.
Test [6] deals with Bacillus subtilis. Nature of the test: Antimicrobial activity against Bacillus subtilis ATCC 43223.

On to `CC(C)=C1CC[C@@H](C)[C@@](C)(Cc2c[nH]c3ccccc23)[C@@H]1CCC(=O)O` [SUAVEOLINDOLE], for which the MIC is more than 128 µg/mL in test [1]; more than 32 µg/mL in test [2]; more than 128 µg/mL in test [3]; 8 µg/mL (≈ 22.6 µM) in test [4]; 8 µg/mL (≈ 22.6 µM) in test [5]; 4 µg/mL (≈ 11.3 µM) in test [6].

By MIC is commonly meant the smallest concentration in the dilution series that meets the test's criterion for growth inhibition. A higher MIC goes with a need for much substance.
